Measured values as given in ChEMBL document CHEMBL5143532, “Discovery of GCC5694A: A potent and selective sodium glucose co-transporter 2 inhibitor for the treatment of type 2 diabetes” (Bioorg Med Chem Lett, 2022).
Calls of active or inactive are those of the source. The calls are words filed in the database; no cut-off is given here.

Tests used:
[1] = target: T1, Sodium/glucose cotransporter 1 (Homo sapiens, UniProt P13866); test: Inhibition of human SGLT1 expressed in CHO cells by methyl-alpha-D-glucopyranoside assay; assay type: cell-based
T1 sequence (P13866 whole entry): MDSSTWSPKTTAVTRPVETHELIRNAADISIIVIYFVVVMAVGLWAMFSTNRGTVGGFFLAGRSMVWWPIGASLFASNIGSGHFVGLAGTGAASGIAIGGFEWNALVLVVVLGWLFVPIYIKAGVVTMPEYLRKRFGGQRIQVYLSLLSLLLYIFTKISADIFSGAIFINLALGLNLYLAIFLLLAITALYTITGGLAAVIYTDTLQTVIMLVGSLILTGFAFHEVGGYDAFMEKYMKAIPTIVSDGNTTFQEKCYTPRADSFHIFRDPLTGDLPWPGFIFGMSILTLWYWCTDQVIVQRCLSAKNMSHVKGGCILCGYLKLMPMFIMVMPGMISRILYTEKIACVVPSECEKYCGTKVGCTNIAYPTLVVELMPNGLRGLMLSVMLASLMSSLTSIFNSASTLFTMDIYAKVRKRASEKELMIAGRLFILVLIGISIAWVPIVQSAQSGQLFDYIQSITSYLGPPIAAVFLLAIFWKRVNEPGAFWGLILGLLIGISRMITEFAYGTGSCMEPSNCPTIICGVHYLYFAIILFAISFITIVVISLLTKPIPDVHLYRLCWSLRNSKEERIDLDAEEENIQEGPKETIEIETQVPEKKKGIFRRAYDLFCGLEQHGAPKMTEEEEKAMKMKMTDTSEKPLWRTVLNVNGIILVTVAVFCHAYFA

[2] = Metabolic stability in mouse by LC-MS/MS analysis; assay type: ADME; settings: read-out: Stability
[3] = Selectivity index, ratio of IC50 for human SGLT1 expressed in CHO cells to IC50 for human SGLT2 expressed in CHO cells; assay type: cell-based
[4] = target: T2, Sodium/glucose cotransporter 2 (Homo sapiens, UniProt P31639); test: Inhibition of human SGLT2 expressed in CHO cells by methyl-alpha-D-glucopyranoside assay; assay type: cell-based
T2 sequence (P31639 whole entry): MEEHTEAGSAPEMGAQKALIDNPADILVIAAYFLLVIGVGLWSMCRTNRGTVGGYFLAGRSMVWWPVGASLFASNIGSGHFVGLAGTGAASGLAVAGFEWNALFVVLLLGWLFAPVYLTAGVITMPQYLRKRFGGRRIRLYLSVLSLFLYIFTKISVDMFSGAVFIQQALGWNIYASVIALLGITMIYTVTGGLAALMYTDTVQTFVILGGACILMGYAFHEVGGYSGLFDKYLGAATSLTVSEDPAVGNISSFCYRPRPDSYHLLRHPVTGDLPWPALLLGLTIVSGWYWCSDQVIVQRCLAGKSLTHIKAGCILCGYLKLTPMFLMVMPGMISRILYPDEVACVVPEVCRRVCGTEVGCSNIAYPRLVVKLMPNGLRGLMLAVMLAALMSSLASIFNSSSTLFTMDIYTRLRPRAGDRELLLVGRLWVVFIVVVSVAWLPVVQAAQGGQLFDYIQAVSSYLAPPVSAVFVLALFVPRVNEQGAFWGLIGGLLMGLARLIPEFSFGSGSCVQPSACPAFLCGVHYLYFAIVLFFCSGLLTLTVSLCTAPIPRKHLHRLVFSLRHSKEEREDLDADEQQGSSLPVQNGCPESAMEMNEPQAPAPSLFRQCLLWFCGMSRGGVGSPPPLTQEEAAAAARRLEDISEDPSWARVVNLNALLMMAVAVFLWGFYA

[5] = Oral bioavailability in Sprague-Dawley rat at 5 mg/kg; assay type: ADME, organism-based; settings: in vivo
[6] = Tmax in Sprague-Dawley rat at 1 mg/kg, iv; assay type: ADME, organism-based; settings: in vivo
[7] = Cmax in Sprague-Dawley rat at 1 mg/kg, iv; assay type: ADME, organism-based; parameters: dose 1 mg/kg, route iv; settings: in vivo
[8] = Tmax in Sprague-Dawley rat at 5 mg/kg, po; assay type: ADME, organism-based; settings: in vivo
[9] = AUCinfinity in Sprague-Dawley rat at 1 mg/kg, iv; assay type: ADME, organism-based; parameters: time infinity, dose 1 mg/kg, route iv; settings: in vivo
[10] = AUCinfinity in Sprague-Dawley rat at 5 mg/kg, po; assay type: ADME, organism-based; parameters: time infinity, dose 5 mg/kg, route po; settings: in vivo
[11] = Terminal elimination half life in Sprague-Dawley rat at 1 mg/kg, iv; assay type: ADME, organism-based; settings: in vivo, read-out: beta t1/2 (converted)
Rattus norvegicus [12] = test: Increase in urinary glucose excretion in oral-dosed normal Sprague-Dawley rat; assay type: functional, organism-based; settings: Urine, dose 0.1-1 mg/kg
Rattus norvegicus [13] = test: Antidiabetic activity in STZ-induced rat model of type 1 diabetes assessed as decrease in hemoglobin A1c level at 0.05 to 0.5 mg/kg for 5 weeks; assay type: functional, organism-based; settings: dose 0.05-0.5 mg/kg
Rattus norvegicus [14] = test: Antidiabetic activity in STZ-induced rat model of type 1 diabetes assessed as decrease in blood glucose level at 0.05 to 0.5 mg/kg for 5 weeks; assay type: functional, organism-based; settings: dose 0.05-0.5 mg/kg
Mus musculus [15] = test: Antidiabetic activity in type 2 diabetic db/db mouse assessed as decrease in hemoglobin A1c level at 0.05 to 0.5 mg/kg for 5 weeks; assay type: functional, organism-based; settings: dose 0.05-0.5 mg/kg
Mus musculus [16] = test: Antidiabetic activity in type 2 diabetic db/db mouse assessed as decrease in blood glucose level at 0.05 to 0.5 mg/kg for 5 weeks; assay type: functional, organism-based; settings: dose 0.05-0.5 mg/kg
[17] = Terminal elimination half life in Sprague-Dawley rat at 5 mg/kg, po; assay type: ADME, organism-based; settings: in vivo, read-out: beta t1/2 (converted)
[18] = Cmax in Sprague-Dawley rat at 5 mg/kg, po; assay type: ADME, organism-based; parameters: dose 5 mg/kg, route po; settings: in vivo

Row | Compound | IC50 [1] | half-life [2] | Ratio IC50 [3] | further results
1 | COc1ccc(Cc2cc([C@@H]3O[C@H](CO)[C@@H](O)[C@H](O)[C@H]3O)c3c(c2Cl)OCC3)cc1 | 0.4 µM | > 120 min | 261 | 
2 | Cc1ccc(Cc2cc([C@@H]3O[C@H](CO)[C@@H](O)[C@H](O)[C@H]3O)c3c(c2Cl)OCC3)cc1 |  |  |  | IC50 [4]: 0.00144 µM
3 | CCOc1ccc(Cc2cc([C@@H]3O[C@H](CO)[C@@H](O)[C@H](O)[C@H]3O)ccc2Cl)cc1 [DAPAGLIFLOZIN] |  |  |  | bioavailability [5]: 88.4%; Tmax [6]: 4.8 min; Cmax [7]: 1300 ng/mL; Tmax [8]: 40.2 min; AUC(0-inf) [9]: 3010 ng·h/mL; AUC(0-inf) [10]: 13300 ng·h/mL; half-life [11]: 174 min
4 | CCCc1ccc(Cc2cc([C@@H]3O[C@H](CO)[C@@H](O)[C@H](O)[C@H]3O)c3c(c2Cl)OCC3)cc1 | 1.37 µM |  | 1170 | 
5 | CC(C)c1ccc(Cc2cc([C@@H]3O[C@H](CO)[C@@H](O)[C@H](O)[C@H]3O)c3c(c2Cl)OCC3)cc1 | 4.94 µM |  |  | 
6 | CCOc1ccc(Cc2cc([C@@H]3O[C@H](CO)[C@@H](O)[C@H](O)[C@H]3O)c3c(c2Cl)OCC3)cc1 | 2.14 µM | 111 min | 1410 | 
7 | CCc1ccc(Cc2cc([C@@H]3O[C@H](CO)[C@@H](O)[C@H](O)[C@H]3O)c3c(c2Cl)OCC3)cc1 | 0.556 µM | 44.5 min | 772 | 
8 | COc1ccc(Cc2cc([C@@H]3O[C@H](CO)[C@@H](O)[C@H](O)[C@H]3O)c3c(c2Cl)CCCO3)cc1 |  | 37.6 min | 17 | 
9 | OC[C@H]1O[C@@H](c2cc(Cc3ccc(C4CCCC4)cc3)c(Cl)c3c2CCO3)[C@H](O)[C@@H](O)[C@@H]1O | 9.93 µM |  | 8560 | 
10 | C=Cc1ccc(Cc2cc([C@@H]3O[C@H](CO)[C@@H](O)[C@H](O)[C@H]3O)c3c(c2Cl)OCC3)cc1 |  | 57 min | 441 | 
11 | COc1ccc(Cc2cc([C@@H]3O[C@H](CO)[C@@H](O)[C@H](O)[C@H]3O)c3c(c2Cl)CCC3)cc1 |  | 30.9 min |  | 
12 | COc1ccc(Cc2cc3c(c([C@@H]4O[C@H](CO)[C@@H](O)[C@H](O)[C@H]4O)c2)CCC3)cc1 |  |  |  | IC50 [4]: 0.00744 µM
13 | COc1ccc(Cc2cc([C@@H]3O[C@H](CO)[C@@H](O)[C@H](O)[C@H]3O)c3c(c2Cl)CCO3)cc1 |  | 42.5 min | 20 | 
14 | CCCOc1ccc(Cc2cc([C@@H]3O[C@H](CO)[C@@H](O)[C@H](O)[C@H]3O)c3c(c2Cl)OCC3)cc1 | 6.28 µM |  | 5150 | 
15 | COc1ccc(Cc2cc([C@@H]3O[C@H](CO)[C@@H](O)[C@H](O)[C@H]3O)c3c(c2Br)CCC3)cc1 |  |  | 35 | 
16 | OC[C@H]1O[C@@H](c2cc(Cc3ccc(C4CC4)cc3)c(Cl)c3c2CCO3)[C@H](O)[C@@H](O)[C@@H]1O [ENAVOGLIFLOZIN] | 0.359 µM | 103 min | 780 | Activity (Rattus norvegicus [12]): Active; bioavailability [5]: 77.4%; Activity (Rattus norvegicus [13]): Active; Tmax [6]: 4.8 min; Activity (Rattus norvegicus [14]): Active; Activity (Mus musculus [15]): Active; Activity (Mus musculus [16]): Active; Cmax [7]: 3300 ng/mL; half-life [17]: 294 min; Tmax [8]: 15 min; AUC(0-inf) [9]: 4180 ng·h/mL; AUC(0-inf) [10]: 16200 ng·h/mL; Cmax [18]: 2340 ng/mL; half-life [11]: 276 min
17 | COc1ccc(Cc2cc([C@@H]3O[C@H](CO)[C@@H](O)[C@H](O)[C@H]3O)c3c(c2C)CCC3)cc1 |  | 20.3 min |  | 
